Data as given in PMC7481701 (Royal Society Open Science, 2020).

How the values were obtained:
[1] = biological target: T1, ChTL activity of the purified human 20S proteasome (Homo sapiens, UniProt P28074); test: Purified 20S proteasome activity assay, ChTL activity (Suc-LLVY-AMC); assay type: biochemical; conditions: for inhibitory activity against the 20S proteasome (in words): ChTL activity, figure 2b
T1 construct: The human erythrocyte 20S proteasome was obtained from Boston Biochem; purchased Boston Biochem; host or cells: human erythrocytes
Procedure: For the proteasome inhibition assays, the peptide-7-amino-4-methylcoumarin (AMC) substrates (25 µM Suc-LLVY-AMC) and inhibitors were added to assay solutions. The assay buffer had the following composition: 25 mM HEPES, 0.5 mM EDTA, 0.03% SDS (pH 8.0). Human erythrocyte 20S proteasome (100 ng) was added to the assay buffer containing substrates and inhibitors at a final volume of 100 µl. After incubation at 37°C for 1 h, the fluorescence emission spectrum at 450 nm (λex, 365 nm) was measured by using a fluorescence microplate reader. The inhibition against PGPH activity of the 20S proteasome was determined as described above except that Z-LLE-AMC was used as the substrate. For the assay of inhibition against the trypsin-like activity of complex 2, the SDS was omitted from the assay buffer and Boc-LRR-AMC was used as the substrate. The assay of inhibition against the trypsin-like activity of complexes 1 and 3 was carried out by the Screening Committee of Anticancer Drugs (Cancer Chemotherapy Center, Japanese Foundation for Cancer Research).
[picture] For the proteasome inhibition assays, the peptide-AMC substrates (25 µM Suc-LLVY-AMC) and inhibitors were added to assay solutions. The assay buffer had the following composition: 25 mM HEPES, 0.5 mM EDTA, 0.03% SDS (pH 8.0). Human erythrocyte 20S proteasome (100 ng) was added to the assay buffer containing substrates and inhibitors at a final volume of 100 µL. After incubation at 37°C for 1 h, the fluorescence emission spectrum at 450 nm (λex, 365 nm) was measured by using a fluorescence microplate reader.

[2] = biological target: T2, ChTL activity of the 20S proteasome from cell lysates (colon26) (Mus musculus, UniProt O55234); test: Inhibition against chymotrypsin-like activity in whole-cell lysates; assay type: biochemical; conditions: whole-cell lysate, figure S3
T2 construct: endogenous in cells; host or cells: colon26 whole-cell lysate
Procedure: Cultures of colon26 were grown at 37°C in RPMI1640 supplemented with 10% fetal bovine serum. Whole-cell lysates were prepared according to the method in the literature.
(§1) For the determination of inhibitory activity in whole-cell lysates, peptide-AMC substrates (50 µM Suc-LLVY-AMC), inhibitors and the whole-cell lysate (15 µg) were added to the assay solutions. The following assay buffer was used: 25 mM HEPES, 0.5 mM EDTA, 0.03% SDS (pH 8.0). After incubation at 37°C for 4 h, the fluorescence emission was measured at 450 nm (λex = 365 nm) by using a fluorescence microplate reader.
as §1, with “the whole cell lysate,” for “whole-cell lysates,”, “inhibitors,” for “inhibitors”, “whole cell” for “whole-cell”, “37 °C” for “37°C”

[3] = purified 20S proteasome, figure S2

Structure (SMILES): NCCNCc1c2ccccc2cc2ccccc12 [N-9-anthracenylmethyl-1,2-ethanediamine, reference compound]
- inhibitory activity against the 20S proteasome (in words) [1, 3]: weak inhibitory activity
- remaining activity at 10 µM ([1]; at 10 µM, purified 20S proteasome, figure S2, read-out: residual activity of ChTL): 43%
- IC50 ([1]; purified human erythrocyte 20S proteasome 100 ng, 25 µM Suc-LLVY-AMC, 37°C 1 h, mean ± s.d. (n = 3)): ~10 µM
- inhibition in the cell-free system (in words) [2]: no inhibition

Structure (SMILES): NCCN.[Cl-].[Cl-].[Pt+2].c1ccncc1.c1ccncc1 [Pt(py)2(ethylenediamine), (ethylenediamine)bispyridine platinum(II) chloride, reference compound]
- inhibitory activity against the 20S proteasome (in words) [1, 3]: no inhibitory activity
